Assay results taken from US8158587B2, “Compound having histone deacetylase-inhibiting activity, and pharmaceutical composition comprising the compound as an active ingredient” (Kyushu Institute of Technology, priority 2006, dated 2012).
pIC50: −log10 of the molar value. Read-outs that look alike come from different tables or passages of the source. Non-standard residues stand in square brackets, D forms with d. Residues, ends and D or L forms follow the SMILES beside them. Ala(5-hexenyl) = C=CCCCCC[C@H](N)C(=O)O; Aib = CC(C)(N)C(=O)O

What was measured:
[1] = target: T1, human HDAC1 (Homo sapiens, UniProt Q13547); assay: HDAC-inhibiting activity, coumarin-labeled acetylated histone peptide assay; type: biochemical; details: human HDAC1 from transfected 293T cells; 37° C., 30 minutes
T1 construct: made in house; host or cells: 293T cells (transient transfection, anti-FLAG immunoprecipitation, FLAG peptide elution)
T1 sequence (Q13547 whole entry): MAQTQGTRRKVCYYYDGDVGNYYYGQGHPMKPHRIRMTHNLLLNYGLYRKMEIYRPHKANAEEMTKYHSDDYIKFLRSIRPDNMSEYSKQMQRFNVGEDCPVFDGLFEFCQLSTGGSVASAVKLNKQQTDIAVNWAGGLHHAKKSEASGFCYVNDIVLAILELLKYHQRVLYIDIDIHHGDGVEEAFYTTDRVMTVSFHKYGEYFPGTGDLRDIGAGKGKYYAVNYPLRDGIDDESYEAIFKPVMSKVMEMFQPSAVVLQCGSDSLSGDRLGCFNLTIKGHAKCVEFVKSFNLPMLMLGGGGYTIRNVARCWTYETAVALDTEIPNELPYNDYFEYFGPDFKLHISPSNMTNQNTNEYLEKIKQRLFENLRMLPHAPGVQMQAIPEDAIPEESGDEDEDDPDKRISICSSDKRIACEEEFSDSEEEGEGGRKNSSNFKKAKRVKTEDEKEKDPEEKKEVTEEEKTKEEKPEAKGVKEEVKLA
Experimental: (§1) In carrying out HDAC-inhibiting activity measurements, HDAC solutions were prepared in the following manner. In each 100-mm dish, there were sowed 1×10^7 293T cells and, after 24 hours, they were transfected with a vector (5 μg) expressing human HDAC1 or HDAC4 or murine HDAC6 using the LipofectAmine 2000 reagent (Invitrogen). The human HDAC1 expression vector used was pcDNA3-HD1 (Yang, W. M., Yao, Y. L., Sun, J. M., Davie, J. R. & Seto, E. (1997) J. Biol. Chem. 272, 28001-28007), the human HDAC4 expression vector used was pcDNA3-HD4 (Fischle, W., Emiliani, S., Hendzel, M. J., Nagase, T., Nomura, N., Voelter, W. & Verdin, E. (1999) J. Biol. Chem. 274, 11713-11720), and the murine HDAC6 expression vector used was pcDNA3-mHDA2/HDAC6 (Verdel, A. & Khochbin, S. (1999) J. Biol. Chem. 274, 2440-2445).
(§2) After 24 hours of incubation, cells were recovered, washed with PBS, suspended in lysis buffer (50 mM Tris-HCl (pH 7.5), 120 mM NaCl, 5 mM EDTA, 0.5% Nonidet P-40), and sonicated. The supernatant was collected by centrifugation and then deprived of nonspecific proteins using Protein A/G plus agarose beads (Santa Cruz Biotechnologies, Inc.). Thereafter, anti-FLAG M2 antibody (Sigma-Aldrich Inc.) was added, and the reaction was allowed to proceed at 4° C. for 2 hours.
(§3) To this were added agarose beads, the reaction was allowed to proceed at 4° C. for 3 hours, and the agarose beads were washed three times with lysis buffer and then once with HD buffer (20 mM Tris-HCl (pH 8.0), 150 mM NaCl, 10% glycerol). The protein bound to the agarose beads was recovered by 1 hour of incubation with FLAG peptide (40 μg) (Sigma-Aldrich Inc.) in HD buffer (200 μl) at 4° C., and the liquid recovered was used, as a reactant solution, in the HDAC-inhibiting activity measurement described below.
(§4) HDAC-inhibiting activity evaluation in each in vitro system was made as follows. Each test compound was dissolved in DMSO, a stock solution with a concentration of 10 mM was thus prepared and this was used as an inhibitor stock solution. The assay was carried out by incubating the HDAC solution and a coumarin-labeled acetylated histone peptide solution in the presence of the test compound at 37° C. for 30 minutes (reaction volume 20 μl). To the reaction mixture was added 30 μl of trypsin, and the aminomethylcoumarin released by the enzymatic reaction was assayed using a fluorescent plate reader. In a negative control assay, no inhibitor was added to the reaction system and the same procedure was carried out.

[2] = target: T2, murine HDAC6 (Mus musculus, UniProt Q9Z2V5); assay: as above; type: biochemical; details: murine HDAC6 from transfected 293T cells; 37° C., 30 minutes
T2 construct: made in house; host or cells: 293T cells (transient transfection, anti-FLAG immunoprecipitation, FLAG peptide elution)
T2 sequence (Q9Z2V5 1-1149): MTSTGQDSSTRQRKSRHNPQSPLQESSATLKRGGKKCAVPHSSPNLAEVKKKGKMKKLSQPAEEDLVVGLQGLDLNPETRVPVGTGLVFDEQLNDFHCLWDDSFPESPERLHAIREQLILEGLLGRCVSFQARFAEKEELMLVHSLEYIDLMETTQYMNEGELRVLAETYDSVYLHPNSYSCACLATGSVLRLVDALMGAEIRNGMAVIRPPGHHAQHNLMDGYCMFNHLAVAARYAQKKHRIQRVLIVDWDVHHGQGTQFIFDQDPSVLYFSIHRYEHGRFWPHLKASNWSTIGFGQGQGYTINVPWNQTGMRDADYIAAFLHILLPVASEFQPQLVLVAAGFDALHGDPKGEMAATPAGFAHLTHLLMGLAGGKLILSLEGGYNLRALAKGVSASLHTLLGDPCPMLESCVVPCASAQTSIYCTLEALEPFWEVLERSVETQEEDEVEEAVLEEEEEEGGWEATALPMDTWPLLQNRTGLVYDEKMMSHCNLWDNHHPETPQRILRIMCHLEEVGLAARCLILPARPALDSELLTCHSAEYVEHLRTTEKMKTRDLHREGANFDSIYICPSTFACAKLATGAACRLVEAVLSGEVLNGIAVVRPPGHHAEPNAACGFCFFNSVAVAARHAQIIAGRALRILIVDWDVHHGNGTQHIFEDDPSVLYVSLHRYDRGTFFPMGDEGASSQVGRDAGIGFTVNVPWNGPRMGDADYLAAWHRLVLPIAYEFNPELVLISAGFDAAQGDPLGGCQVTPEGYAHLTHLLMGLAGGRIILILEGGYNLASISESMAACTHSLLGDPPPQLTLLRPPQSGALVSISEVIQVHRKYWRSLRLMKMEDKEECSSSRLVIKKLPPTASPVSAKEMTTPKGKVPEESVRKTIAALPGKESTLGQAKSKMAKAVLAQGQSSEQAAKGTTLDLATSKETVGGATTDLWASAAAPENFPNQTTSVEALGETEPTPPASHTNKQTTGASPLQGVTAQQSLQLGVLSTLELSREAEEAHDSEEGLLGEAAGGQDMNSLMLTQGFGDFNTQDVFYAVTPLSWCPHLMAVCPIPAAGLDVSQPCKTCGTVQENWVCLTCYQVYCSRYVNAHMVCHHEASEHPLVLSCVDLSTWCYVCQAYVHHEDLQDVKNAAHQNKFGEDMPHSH
Experimental: as §1, §2, §3, §4

[3] = target: T3, human HDAC4 (Homo sapiens, UniProt P56524); assay: as above; type: biochemical
T3 construct: made in house; host or cells: 293T cells (transient transfection, anti-FLAG immunoprecipitation, FLAG peptide elution)
T3 sequence (P56524 whole entry): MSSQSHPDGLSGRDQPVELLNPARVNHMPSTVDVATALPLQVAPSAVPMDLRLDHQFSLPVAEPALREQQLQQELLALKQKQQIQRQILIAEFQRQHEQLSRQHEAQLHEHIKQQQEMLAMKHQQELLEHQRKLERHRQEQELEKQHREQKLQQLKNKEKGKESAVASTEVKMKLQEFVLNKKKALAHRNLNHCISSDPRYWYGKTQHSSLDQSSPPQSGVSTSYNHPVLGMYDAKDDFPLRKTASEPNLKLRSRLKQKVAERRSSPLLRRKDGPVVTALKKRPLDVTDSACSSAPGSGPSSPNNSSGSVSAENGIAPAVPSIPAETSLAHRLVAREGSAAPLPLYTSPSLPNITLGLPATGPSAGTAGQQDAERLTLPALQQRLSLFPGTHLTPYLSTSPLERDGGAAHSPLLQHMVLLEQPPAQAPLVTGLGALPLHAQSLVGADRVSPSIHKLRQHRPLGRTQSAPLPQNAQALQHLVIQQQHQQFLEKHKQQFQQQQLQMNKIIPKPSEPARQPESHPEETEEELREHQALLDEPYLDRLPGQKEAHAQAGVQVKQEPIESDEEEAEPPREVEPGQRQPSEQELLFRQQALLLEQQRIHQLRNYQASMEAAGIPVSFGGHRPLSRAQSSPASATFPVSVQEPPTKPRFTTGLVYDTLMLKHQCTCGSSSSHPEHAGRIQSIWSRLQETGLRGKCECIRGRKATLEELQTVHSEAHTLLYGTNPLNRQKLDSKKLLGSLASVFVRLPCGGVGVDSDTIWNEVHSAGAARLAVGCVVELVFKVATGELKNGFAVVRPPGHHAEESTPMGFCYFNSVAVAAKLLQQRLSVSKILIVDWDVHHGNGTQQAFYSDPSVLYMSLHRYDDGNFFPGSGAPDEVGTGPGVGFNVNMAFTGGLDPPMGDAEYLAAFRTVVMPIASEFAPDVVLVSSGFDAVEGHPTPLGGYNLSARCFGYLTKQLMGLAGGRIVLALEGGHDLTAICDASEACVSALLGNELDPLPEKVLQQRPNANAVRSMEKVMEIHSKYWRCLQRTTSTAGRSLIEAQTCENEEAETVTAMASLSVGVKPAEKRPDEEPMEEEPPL
T3 sequence (O15379 whole entry, further chain): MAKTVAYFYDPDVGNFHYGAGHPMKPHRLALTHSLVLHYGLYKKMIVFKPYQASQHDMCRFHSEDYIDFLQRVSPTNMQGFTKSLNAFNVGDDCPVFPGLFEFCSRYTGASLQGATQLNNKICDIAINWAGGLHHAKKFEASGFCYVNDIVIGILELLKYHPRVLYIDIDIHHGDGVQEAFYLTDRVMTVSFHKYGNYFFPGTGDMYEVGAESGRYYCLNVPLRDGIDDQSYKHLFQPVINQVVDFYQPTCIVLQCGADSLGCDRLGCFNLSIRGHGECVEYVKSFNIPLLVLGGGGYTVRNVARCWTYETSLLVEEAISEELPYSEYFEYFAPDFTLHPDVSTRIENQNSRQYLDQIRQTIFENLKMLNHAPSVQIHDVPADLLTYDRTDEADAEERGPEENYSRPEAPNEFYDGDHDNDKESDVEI
Experimental: In carrying out HDAC-inhibiting activity measurements, HDAC solutions were prepared in the following manner. […] The human HDAC1 expression vector used was pcDNA3-HD1 (Yang, W. M., Yao, Y. L., Sun, […]. & Seto, E. (1997) J. Biol. Chem. 272, 28001-28007), the human HDAC4 expression vector used was pcDNA3-HD4 ([…]., Nagase, […]. Biol. Chem. 274, 11713-11720), and the murine HDAC6 expression vector used was pcDNA3-mHDA2/HDAC6 ([…]. Biol. Chem. 274, 2440-2445). After 24 hours of incubation, cells were recovered, washed with PBS, suspended in lysis buffer (50 mM Tris-HCl (pH 7.5), 120 mM NaCl, 5 mM EDTA, 0.5% Nonidet P-40), and sonicated. The supernatant was collected by centrifugation and then deprived of nonspecific proteins using Protein A/G plus agarose beads (Santa Cruz Biotechnologies, Inc.). Thereafter, anti-FLAG M2 antibody (Sigma-Aldrich Inc.) was added, and the reaction was allowed to proceed at 4° C. for 2 hours. To this were added agarose beads, the reaction was allowed to proceed at 4° C. for 3 hours, and the agarose beads were washed three times with lysis buffer and then once with HD buffer (20 mM Tris-HCl (pH 8.0), 150 mM NaCl, 10% glycerol). […] HDAC-inhibiting activity evaluation in each in vitro system was made as follows. Each test compound was dissolved in DMSO, a stock solution with a concentration of 10 mM was thus prepared and this was used as an inhibitor stock solution. The assay was carried out by incubating the HDAC solution and a coumarin-labeled acetylated histone peptide solution in the presence of the test compound at 37° C. for 30 minutes (reaction volume 20 μl). To the reaction mixture was added 30 μl of trypsin, and the aminomethylcoumarin released by the enzymatic reaction was assayed using a fluorescent plate reader. In a negative control assay, no inhibitor was added to the reaction system and the same procedure was carried out.

[4] = test system: human wild type p21 promoter; assay: p21 promoter assay (luciferase) in MFLL-9 cells; type: cell-based; details: 20 hours, concentration giving 1000% luminescence relative to negative control (100%)
Experimental: As an HDAC-inhibiting activity in an […] system, the following measurement was carried out using the p21 promoter inducing activity as an index. MFLL-9 cells used in the experiment are cells stably retaining a fusion gene (Dr. B. Vogelstaein) from the human wild type p21 promoter and luciferase gene. They were cultured using phenol red-free DMEM supplemented with 10% FBS in a steam-saturated incubator at 37° C. in the presence of 5% carbon dioxide. These MFLL-9 cells were sowed onto a 96-well microplate at a cell density of 2×10^4 cells/well and, after 24 hours of cultivation in 99 μl, per well, of the medium mentioned above, each test compound solution was added, followed by 20 hours of incubation. […] In a negative control, the same procedure was carried out without adding any inhibitor to the reaction system.
Using Luciferase Assay Reagent (Promega), the intensity of the luminescence due to the product of the enzymatic reaction involving luciferase expressed within cells was measured.

[5] = human HDAC4 from transfected 293T cells, 37° C., 30 minutes, read-out: HDAC-inhibiting activity IC50 HDAC4

SMILES | pIC50 [1] | pIC50 [2] | pIC50 [3, 5] | pIC50 [3] | p21 promoter activity EC1000 [4] [µM]
CCOCC(=O)CCCCC[C@@H]1NC(=O)[C@H]2CCCN2C(=O)[C@H](Cc2ccccc2)NC(=O)C(C)(C)NC1=O [Ky-10, cyclo(-L-Ae9(Emk)-Aib-L-Phe-D-Pro-)] | 7.68 | 5.08 | 7.51 | – | 0.095
CC1(C)NC(=O)[C@H](CCCCCC(=O)CBr)NC(=O)[C@H]2CCCN2C(=O)[C@H](Cc2ccccc2)NC1=O [Ky-12, cyclo(-L-Ae9(Bmk)-Aib-L-Phe-D-Pro-)] | 7.21 | 6.21 | 7.22 | – | 0.34
C=CCCCCC[C@@H]1NC(=O)[C@H]2CCCN2C(=O)[C@H](Cc2ccccc2)NC(=O)C(C)(C)NC1=O [Ky-17, cyclo(-L-Ae9-Aib-L-Phe-D-Pro-)] (cyclo([Aib]F[dP][Ala(5-hexenyl)])) | < 4.00 | < 4.00 | – | < 4.00 | >250
CC1(C)NC(=O)C(CCCCC[S+]([O-])Cc2ccccn2)NC(=O)[C@H]2CCCN2C(=O)[C@H](Cc2ccccc2)NC1=O (stereo partly drawn) [Ky-25, cyclo(-L-Am7(2-pyridylmethyl,sulfoxide)-Aib-L-Phe-D-Pro-)] | – | – | – | – | 1.4
CC1(C)NC(=O)[C@H](CCCCSCC(=O)C(F)(F)F)NC(=O)[C@H]2CCCN2C(=O)[C@H](Cc2ccccc2)NC1=O [Ky-28, cyclo(-L-Am6(1,1,1-trifluoroacetonyl)-Aib-L-Phe-D-Pro-)] | 4.08 | < 4.00 | 4.74 | – | 6.5
CC1(C)NC(=O)[C@H](CCCCCSCC(=O)C(F)(F)F)NC(=O)[C@H]2CCCN2C(=O)[C@H](Cc2ccccc2)NC1=O [Ky-29, cyclo(-L-Am7(1,1,1-trifluoroacetonyl)-Aib-L-Phe-D-Pro-)] | – | – | 6.44 | – | 0.028
CC(=O)C[S+]([O-])CCCCCC1NC(=O)[C@H]2CCCN2C(=O)[C@H](Cc2ccccc2)NC(=O)C(C)(C)NC1=O (stereo partly drawn) [Ky-86, cyclo(-L-Am7(acetonyl,sulfoxide)-Aib-L-Phe-D-Pro-)] | – | – | – | – | 16.8

Continued, in another order:

pIC50 [1] | pIC50 [2] | pIC50 [3, 5] | pIC50 [3] | SMILES | p21 promoter activity EC1000 [4] [µM]
6.96 | 4.39 | 7.13 | – | CSCC(=O)CCCCC[C@@H]1NC(=O)[C@H]2CCCN2C(=O)[C@H](Cc2ccccc2)NC(=O)C(C)(C)NC1=O [Ky-13, cyclo(-L-Ae9(Mtmk)-Aib-L-Phe-D-Pro-)] | 0.13
4.70 | < 4.00 | 4.75 | – | CN(C)CC(=O)CCCCC[C@@H]1NC(=O)[C@H]2CCCN2C(=O)[C@H](Cc2ccccc2)NC(=O)C(C)(C)NC1=O [Ky-14, cyclo(-L-Ae9(Dmamk)-Aib-L-Phe-D-Pro-)] | 2.4
< 4.00 | < 4.00 | < 4.00 | – | CSCCCCC[C@@H]1NC(=O)[C@H]2CCCN2C(=O)[C@H](Cc2ccccc2)NC(=O)C(C)(C)NC1=O [Ky-15, cyclo(-L-Am7(methyl)-Aib-L-Phe-D-Pro-)] | –
7.64 | 7.24 | 7.96 | – | CC1(C)NC(=O)[C@H](CCCCCSCc2ccccn2)NC(=O)[C@H]2CCCN2C(=O)[C@H](Cc2ccccc2)NC1=O [Ky-16, cyclo(-L-Am7(2-pyridylmethylthio ether)-Aib-L-Phe-D-Pro-)] | 0.20
6.96 | 5.37 | 6.72 | – | CC(=O)SCC(=O)CCCCC[C@@H]1NC(=O)[C@H]2CCCN2C(=O)[C@H](Cc2ccccc2)NC(=O)C(C)(C)NC1=O [Ky-18, cyclo(-L-Ae9(Actmk)-Aib-L-Phe-D-Pro-)] | 0.013
< 4.00 | < 4.00 | < 4.00 | – | CC1(C)NC(=O)[C@H](CCCSCC(=O)C(F)(F)F)NC(=O)[C@H]2CCCN2C(=O)[C@H](Cc2ccccc2)NC1=O [Ky-27, cyclo(-L-Am5(1,1,1-trifluoroacetonyl)-Aib-L-Phe-D-Pro-)] | >250
6.43 | < 4.00 | 6.34 | – | CC1(C)NC(=O)[C@H](CCCCCC(=O)COCC(F)(F)F)NC(=O)[C@H]2CCCN2C(=O)[C@H](Cc2ccccc2)NC1=O [Ky-60, cyclo(-L-Ae9(Tfemk)-Aib-L-Phe-D-Pro-)] | 0.85
